Test results: US5607969A, “L-DOPA ethyl ester to treat Parkinson's disease” (priority 1995, dated 1997)
Entries after “also recorded” stand apart in the source; their conditions may differ. Structures can show the parent of a compound that is named as a salt. Where two headings read alike, the source gives them in different places.

Assays:
[1] = Stability of L-DOPA ethyl ester prepared according to Examples 1 and 2 (Table 2); type: physicochemical; set-up: key to COLOR: A: White with gray particles; B: Cream; C: WhiteYellow; D: Yellow; E: Dark Yellow; F: Gray; IMPURITIES: unit not given beside the values
From the text: | STABILITY OF L-DOPA ESTER PREPARED

[2] = Bio-availability of L-DOPA ethyl ester in rats (subcutaneous), plasma L-DOPA profile; type: in vivo; settings: s.c.
Description: Three subgroups of rats, each comprising four males and four females, were injected subcutaneously with 100 mg./kg. L-DOPA equivalents as L-DOPA ethyl ester. The L-DOPA ethyl ester was prepared as described in Example 1 and formulated as described in Example 4. After injection, blood samples were taken from the tail at the times shown below and analyzed for L-DOPA as described in T. Wikberg, J. of Pharmaceutical & Biomedical Analysis 9: 167-176 (1991). […] The L-DOPA plasma profile following injection is shown below: […]

[3] = system: Parkinson's Disease patients having response fluctuations; experiment: Clinical trial: administration of L-DOPA ethyl ester by injection (UPDRS on/off phases); type: in vivo, human
Description: A clinical trial was undertaken to assess the clinical efficacy of L-DOPA ethyl ester administered by sub-cutaneous injection.
The solution for injection L-DOPA ethyl ester 100mg, HCl to pH 4.0 and purified water as the vehicle.
Ten Parkinson's Disease patients having response fluctuations were hospitalized. These patients are typified in have "on" phases fluctuating with incapacitating "off" phases. Patients were administered s.c. or i.m. L-DOPA ethyl ester at escalating doses of 150-300mg in 2ml vehicle, twice daily, one hour after an oral capsule containing 25mg of carbidopa. "Off" and "on" UPDRS (Unified Parkinson's Disease Rating Scale) profiles, time to "on" phase and duration of "on" phase were measured. Blood samples were taken every 10 minutes post-L-DOPA ethyl ester administration for measurement of levodopa levels.

[4] = system: fluctuating Parkinsonian patients; experiment: First oral clinical trial in fluctuating Parkinsonian patients; type: in vivo, human; settings: four occasions over two days, five patients
Description: This was the second in a series of oral clinical trials carried out with L-DOPA ethyl ester. The first clinical trial was carried out in five fluctuating Parkinsonian patients in the hospital setting where L-DOPA ethyl ester was administered on four occasions over a two day period.

[5] = Oral administration of L-DOPA ethyl ester to volunteers, plasma L-DOPA levels; type: in vivo, human; settings: humans
Description: Human volunteers orally received 100 mg equivalents of L-DOPA as L-DOPA ethyl ester prepared according to Example 1 and formulated as described in Example 5. Plasma levels of L-DOPA following administration of representative patients are listed below in Table 5.

[6] = system: fluctuating Parkinsonian patients; experiment: Second oral clinical trial: safety, tolerability and preliminary efficacy of L-DOPA ethyl ester, sub-chronic; type: in vivo, human
Description: A clinical trial was carried out to determine the safety, tolerability, and preliminary efficacy of L-DOPA ethyl ester administered sub-chronically via the oral route in eight fluctuating Parkinsonian patients.
In the second clinical trial, all patients filled out daily diary cards for at least 10 days prior to study entry to ensure their reliability. Upon study entry they were instructed to continue filling out daily diary cards for the 10-day period during which they were taking L-DOPA ethyl ester.
Three out of the patients' normal daily doses with levodopa/carbidopa or levodopa/benserazide were switched to L-DOPA ethyl ester, each day for ten days. At the beginning and end of this ten-day period, a physical exam was performed and blood chemistry analyzed.

[7] = literature, hydrochloride, cited from earlier work
[8] = Hygroscopicity, stability and crystallization of L-DOPA ethyl ester hydrochloride / free base made by conventional methods; type: physicochemical
From the text: GB Patent No. 1,364,505 and corresponding U.S. Pat. No. 3,803,120, assigned to Hoffman-La Roche, describe the synthesis of L-DOPA ethyl ester hydrochloride salt and free base. This compound synthesized is used as an intermediate in the synthesis of other compounds and is not characterized in the patent specification. […] This material cannot be used for pharmaceutical compositions.

[9] = s.c./i.m. injection, dose dependence
[10] = 25° C. -N2, 1 m, listed as Example 1
[11] = 25° C. -N2, 2 m, listed as Example 1
[12] = 25° C. -N2, 4 m, listed as Example 1
[13] = 40° C., 1 m, listed as Example 1
[14] = 40° C., 2 m, listed as Example 1
[15] = 40° C., 4 m, listed as Example 1
[16] = synthesized by the methods of GB 1,364,505 / U.S. 3,803,120

## CCOC(=O)[C@@H](N)Cc1ccc(O)c(O)c1 [Example 2c, L-DOPA ethyl ester]
[1]; 25° C. -N2, 1 m
  COLOR: D
  IMPURITIES: 5.6
[1]; 25° C. -N2, 1 m, 43200 min
  ASSAY: 94.0%
[1]; 25° C. -N2, 2 m
  COLOR: D/E
  IMPURITIES: 5.1
[1]; 25° C. -N2, 2 m, 86400 min
  ASSAY: 93.6%
[1]; 25° C. -N2, 4 m
  COLOR: F
  IMPURITIES: 5.6
[1]; 25° C. -N2, 4 m, 172800 min
  ASSAY: 94.1%
[1]; 40° C., 1 m
  COLOR: D
  IMPURITIES: 5.7
[1]; 40° C., 1 m, 43200 min
  ASSAY: 91.7%
[1]; 40° C., 2 m
  COLOR: D/E
  IMPURITIES: 4.8
[1]; 40° C., 2 m, 86400 min
  ASSAY: 93%
[1]; 40° C., 4 m
  COLOR: F
  IMPURITIES: 6.4
[1]; 40° C., 4 m, 172800 min
  ASSAY: 93%
[1]; t = 0
  ASSAY: 95.8%

## CCOC(=O)[C@@H](N)Cc1ccc(O)c(O)c1 [Example 2a, L-DOPA ethyl ester]
[1]; 25° C. -N2, 1 m
  COLOR: D
  IMPURITIES: 16.9
[1]; 25° C. -N2, 1 m, 43200 min
  ASSAY: 83.1%
[1]; 25° C. -N2, 2 m
  COLOR: E
  IMPURITIES: 17.2
[1]; 25° C. -N2, 2 m, 86400 min
  ASSAY: 84.4%
[1]; 40° C., 1 m
  COLOR: E
  IMPURITIES: 20.9
[1]; 40° C., 1 m, 43200 min
  ASSAY: 82.6%
[1]; 40° C., 2 m
  COLOR: E
  IMPURITIES: 19.3
[1]; 40° C., 2 m, 86400 min
  ASSAY: 80.0%
[1]; t = 0
  ASSAY: 87%

## CCOC(=O)[C@@H](N)Cc1ccc(O)c(O)c1 [Example 2b, L-DOPA ethyl ester]
[1]; 25° C. -N2, 1 m
  COLOR: D/E
  IMPURITIES: 13.0
[1]; 25° C. -N2, 1 m, 43200 min
  ASSAY: 88.0%
[1]; 25° C. -N2, 2 m
  COLOR: D/E
  IMPURITIES: 13.9
[1]; 25° C. -N2, 2 m, 86400 min
  ASSAY: 86.8%
[1]; 25° C. -N2, 4 m
  COLOR: D/E
  IMPURITIES: 9.7
[1]; 25° C. -N2, 4 m, 172800 min
  ASSAY: 88.1%
[1]; 40° C., 1 m
  COLOR: D/E
  IMPURITIES: 14.0
[1]; 40° C., 1 m, 43200 min
  ASSAY: 85.1%
[1]; 40° C., 2 m
  COLOR: D/E
  IMPURITIES: 18.2
[1]; 40° C., 2 m, 86400 min
  ASSAY: 83.3%
[1]; 40° C., 4 m
  COLOR: F
[1]; 40° C., 4 m, 172800 min
  ASSAY: 79.2%
[1]; t = 0
  ASSAY: 87.9%

## CCOC(=O)[C@@H](N)Cc1ccc(O)c(O)c1 [L-DOPA ethyl ester]
[2]
  conversion to L-DOPA: fully converted to L-DOPA
[2]; 100 mg./kg. L-DOPA equivalents
  L-DOPA ethyl ester detected in plasma samples: No L-DOPA ethyl ester was detected in any of the plasma samples
[2]; compared with L-DOPA
  kinetic profile: kinetic profile similar to L-DOPA
[3]; 150 mg i.m., 2 injections, range (30-45)
  MEAN TIME TO "ON" (RANGE): 37.5 min
[3]; 150 mg i.m., 2 injections, range (60-70)
  MEAN DURATION OF "ON" (RANGE): 65 min
[3]; 150 mg s.c., 6 injections, range (10-55)
  MEAN DURATION OF "ON" (RANGE): 31.4 min
[3]; 150 mg s.c., 6 injections, range (25-90)
  MEAN TIME TO "ON" (RANGE): 54 min
[3]; 200 mg i.m., 5 injections, range (20-40)
  MEAN TIME TO "ON" (RANGE): 29.2 min
[3]; 200 mg i.m., 5 injections, range (28-175)
  MEAN DURATION OF "ON" (RANGE): 104.5 min
[3]; 200 mg s.c., 19 injections, range (10-120)
  MEAN TIME TO "ON" (RANGE): 38.6 min
[3]; 200 mg s.c., 19 injections, range (10-235)
  MEAN DURATION OF "ON" (RANGE): 126.9 min
[3]; 250 mg i.m., 5 injections, range (10-35)
  MEAN TIME TO "ON" (RANGE): 27.5 min
[3]; 250 mg i.m., 5 injections, range (75-170)
  MEAN DURATION OF "ON" (RANGE): 133.3 min
[3]; 250 mg s.c., 8 injections, range (20-40)
  MEAN TIME TO "ON" (RANGE): 27.1 min
[3]; 250 mg s.c., 8 injections, range (60-210)
  MEAN DURATION OF "ON" (RANGE): 155 min
[3]; 300 mg i.m., 7 injections, range (5-35)
  MEAN TIME TO "ON" (RANGE): 18.3 min
[3]; 300 mg i.m., 7 injections, range (135-265)
  MEAN DURATION OF "ON" (RANGE): 196.7 min
[3]; 300 mg s.c., 6 injections, range (5-37)
  MEAN TIME TO "ON" (RANGE): 22.8 min
[3]; 300 mg s.c., 6 injections, range (80-315)
  MEAN DURATION OF "ON" (RANGE): 193 min
[3]; s.c. LDEE injection
  patients turned to an "on" phase: All patients were turned to an "on" phase
[3]; s.c./i.m. injection
  local or general side effects: No local or general side effects were observed
  plasma levodopa elevations: rapid and sustained plasma levodopa elevations
[3]; [9]
  duration of "on" phases: increased in a dose-dependant manner
  latency of onset of "on" phases: decreased
[4]
  adverse reactions: No adverse reactions were recorded in any of the patients
[5]
  conversion of L-DOPA ethyl ester to L-DOPA: rapid conversion of L-DOPA ethyl ester to L-DOPA in humans
[6]; following ten-day treatment
  serum chemistry: no abnormalities or changes for any patient
[6]; ten days
  duration of the anti-Parkinsonian effect: marked beneficial effect
  latency to initiation of drug action: marked beneficial effect
  variability of the response of the patient to the drug's effect: significant decrease
[6]; ten days, three times per day
  safety and tolerability: well tolerated by all individuals in the trial; also recorded: safe, well tolerated
[6]; ten days, three times per day, potential advantage
  unpredictability of drug response: reducing the unpredictability of drug response
[6]; ten-day treatment, eight patients
  patient complaints / adverse reaction: no patient complaints nor any reported adverse reaction
[1]; [10]
  COLOR: A
  IMPURITIES: 1.2
[1]; [11]
  COLOR: B
  IMPURITIES: 0.7
[1]; [12]
  COLOR: C
  IMPURITIES: 0.6
[1]; [13]
  COLOR: A
  IMPURITIES: 2.4
[1]; [14]
  COLOR: B
  IMPURITIES: 0.7
[1]; 40° C., 4 m, 172800 min, listed as Example 1, 172800 min
  ASSAY: 99.7%
[1]; [15]
  COLOR: C
  IMPURITIES: 0.5
[1]; storage, 25° C. -N2, 1 m
  remaining at 720 h: 98%
[1]; storage, 25° C. -N2, 2 m
  remaining at 1440 h: 99.4%
[1]; storage, 25° C. -N2, 4 m
  remaining at 2880 h: 99.5%
[1]; storage, 40° C., 1 m
  remaining at 720 h: 98.9%
[1]; storage, 40° C., 2 m
  remaining at 1440 h: 99.6%

## CCOC(=O)[C@@H](N)Cc1ccc(O)c(O)c1 [L-DOPA ethyl ester hydrochloride salt, L-DOPA ethyl ester hydrochloride]
[7]
  crystallization: difficult to crystallize
  hygroscopicity: hygroscopic
[7]; listed as ethyl ester
  crystallization: could not be crystallized as its hydrochloride salt
  hygroscopicity: hygroscopic potential
[8]; applicant's own finding, hydrochloride
  hygroscopicity: hygroscopic nature
[8]; [16]
  crystallization: difficult to crystallize
  stability: not stable
